Drawing on patent US10927125B2, “Substituted cinnolines as inhibitors of KRAS G12C” (Araxes Pharma LLC, priority 2013, dated 2021), this text covers Binding % for 24 molecules.

For one test, the target named is T1, KRAS G12C 1-169, his-tagged protein, GDP-loaded (Homo sapiens, UniProt P01116, G12C).
T1 construct: KRAS G12C 1-169, his-tagged protein, GDP-loaded
T1 sequence (P01116 1-169 isoform P01116-2 G12C): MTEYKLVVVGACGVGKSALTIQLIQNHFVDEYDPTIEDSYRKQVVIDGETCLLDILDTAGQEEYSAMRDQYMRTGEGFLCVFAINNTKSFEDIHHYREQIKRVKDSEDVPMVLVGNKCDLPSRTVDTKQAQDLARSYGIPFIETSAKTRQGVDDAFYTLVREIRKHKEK
Kind of test: Biochemical assay: covalent binding of compounds to KRAS G12C, analysed by mass spectrometry. The settings on record: binding measured at 30 min (compounds 247-375). The protocol: Compounds were tested for activity as follows:
Compounds were diluted to 50× final test concentration in DMSO in 96-well storage plates. […] Reactions were mixed carefully and thoroughly by pipetting up/down with a 200 μl multi-channel pipettor. The plate was sealed well with aluminum plate seal, and stored in drawer at room temperature for 30 min, 2 hour or 24 hrs. 51 μl of 2% formic acid (Fisher cat # A117) in DI H2O was then added to each well followed by mixing with a pipette. The plate was then resealed with aluminum seal and stored on dry ice until analyzed as described below.
The above described assays were analyzed by mass spectrometry according to the following procedure:
The MS instrument is set to positive polarity, 2 GHz resolution, and low mass (1700) mode and allowed to equilibrate for 30 minutes. The instrument is then calibrated, switched to acquisition mode and the appropriate method loaded.
After another 30 minute equilibration time, a blank batch (i.e., buffer) is run to ensure equipment is operating properly. The samples are thawed at 37° C. for 10 minutes, briefly centrifuged, and transfer to the bench top. Wells A1 and H12 are spiked with 1 uL 500 uM internal standard peptide, and the plates centrifuged at 2000×g for 5 minutes. The method is then run and masses of each individual well recorded.
The masses (for which integration data is desired) for each well are pasted into the platemap and exported from the analysis. Masses for the internal standards are exported as well. The data at 50 ppm is extracted for the +19 charge state, and identity of well A1 is assigned using the internal standard spike and integrated. Peak data is exported as a TOF list and the above steps are repeated individually, for the +20, 21, 22, 23, 24, and 25 charge states.
As to `C=CC(=O)N1CCN(c2ncnc3c(OC)c(-c4cc(O)cc5ccccc45)c(Cl)cc23)CC1` [Compound 348, 1-(4-(6-chloro-7-(3-hydroxynaphthalen-1-yl)-8-methoxyquinazolin-4-yl)piperazin-1-yl)prop-2-en-1-one], the Binding % entry is “++++ (++++ indicates binding activity greater than 75%)”.
Still for that read-out and setting: to `C=CC(=O)N1CCN(c2nc(OCCNC(C)=O)nc3c(F)c(-c4c(C)ccc5[nH]ncc45)c(Cl)cc23)CC1` [Compound 366, N-(2-(4-(4-acryloylpiperazin-1-yl)-6-chloro-8-fluoro-7-(5-methyl-1H-indazol-4-yl)quinazolin-2-yloxy)ethyl)acetamide] belongs “++++ (++++ indicates binding activity greater than 75%)”; to `C=CC(=O)N1CCN(c2ncnc3cc(-c4cc(C)cc5[nH]ncc45)c(Cl)cc23)CC1` [Compound 262, 1-(4-(6-chloro-7-(6-methyl-1H-indazol-4-yl)quinazolin-4-yl)piperazin-1-yl)prop-2-en-1-one], “+ (+ indicates binding activity from 5% to 25%)”.
On to `C=CC(=O)N1CCN(c2nc(OCCCN3CCOCC3)nc3c(F)c(-c4c(C)ccc5[nH]ncc45)c(Cl)cc23)CC1` [Compound 357, 1-(4-(6-chloro-8-fluoro-7-(5-methyl-1H-indazol-4-yl)-2-(3-morpholinopropoxy)quinazolin-4-yl)piperazin-1-yl)prop-2-en-1-one], for which the Binding % entry is “++++ (++++ indicates binding activity greater than 75%)”.
On the same count and under the same terms, under `C=CC(=O)N1CCN(c2ncnc3cc(-c4c(O)cccc4F)c(Cl)c(F)c23)CC1` [Compound 343, 1-(4-(6-chloro-5-fluoro-7-(2-fluoro-6-hydroxyphenyl)quinazolin-4-yl)piperazin-1-yl)prop-2-en-1-one] stands “+++ (+++ indicates binding activity greater than 50% and up to 75%)”.
The same measure, in the same setting: to `C=CC(=O)N1CCN(c2nc(NC3CCN(CC(F)(F)F)C3)nc3c(F)c(-c4c(C)ccc5[nH]ncc45)c(Cl)cc23)CC1` (stereo not drawn) [Compound 354, 1-(4-(6-chloro-8-fluoro-7-(5-methyl-1H-indazol-4-yl)-2-(1-(2,2,2-trifluoroethyl)pyrrolidin-3-ylamino)quinazolin-4-yl)piperazin-1-yl)prop-2-en-1-one] belongs “++++ (++++ indicates binding activity greater than 75%)”; to `C/C=C/C(=O)N1CCN(c2ncnc3c(F)c(-c4cc(O)cc5ccccc45)c(Cl)cc23)CC1` [Compound 328, (E)-1-(4-(6-chloro-8-fluoro-7-(3-hydroxynaphthalen-1-yl)quinazolin-4-yl)piperazin-1-yl)but-2-en-1-one], “+ (+ indicates binding activity from 5% to 25%)”; to `C=CC(=O)N1CCN(c2nc(NC3CCN(CC(F)(F)F)C3)nc3c(F)c(-c4cc(O)cc5ccccc45)c(Cl)cc23)CC1` (stereo not drawn) [Compound 349, 1-(4-(6-chloro-8-fluoro-7-(3-hydroxynaphthalen-1-yl)-2-(1-(2,2,2-trifluoroethyl)pyrrolidin-3-ylamino)quinazolin-4-yl)piperazin-1-yl)prop-2-en-1-one], “+++ (+++ indicates binding activity greater than 50% and up to 75%)”.
The same measure, in the same setting: to `C=CC(=O)N1CCN(c2nc(NC3CCN(C)C3)nc3c(F)c(-c4c(C)ccc5[nH]ncc45)c(Cl)cc23)CC1` (stereo not drawn) [Compound 372, 1-(4-(6-chloro-8-fluoro-7-(5-methyl-1H-indazol-4-yl)-2-(1-methylpyrrolidin-3-ylamino)quinazolin-4-yl)piperazin-1-yl)prop-2-en-1-one] belongs “+++ (+++ indicates binding activity greater than 50% and up to 75%)”.
Regarding `C=CC(=O)N1CCN(c2nc(OCCN(C)C)nc3c(F)c(-c4cc(O)cc5ccccc45)c(Cl)cc23)CC1` [Compound 374, 1-(4-(6-chloro-2-(2-(dimethylamino)ethoxy)-8-fluoro-7-(3-hydroxynaphthalen-1-yl)quinazolin-4-yl)piperazin-1-yl)prop-2-en-1-one], the Binding % entry is “+++ (+++ indicates binding activity greater than 50% and up to 75%)”.
The same measure, in the same setting: under `C=CC(=O)N1CCN(c2ncnc3c(F)c(-c4c(O)cccc4F)c(Cl)cc23)CC1` [Compound 370, (R)-1-(4-(6-chloro-8-fluoro-7-(2-fluoro-6-hydroxyphenyl)quinazolin-4-yl)piperazin-1-yl)prop-2-en-1-one] stands “+ (+ indicates binding activity from 5% to 25%)”; under `C=CC(=O)N1CCN(c2nc(NC3CCOC3)nc3c(F)c(-c4c(C)ccc5[nH]ncc45)c(Cl)cc23)CC1` (stereo not drawn) [Compound 347, 1-(4-(6-chloro-8-fluoro-7-(5-methyl-1H-indazol-4-yl)-2-(tetrahydrofuran-3-ylamino)quinazolin-4-yl)piperazin-1-yl)prop-2-en-1-one], “++++ (++++ indicates binding activity greater than 75%)”; under `C=CC(=O)N1CCN(c2cnnc3cc(-c4cc(O)cc5ccccc45)c(C(F)(F)F)cc23)CC1` [Compound 351, 1-(4-(7-(3-hydroxynaphthalen-1-yl)-6-(trifluoromethyl)cinnolin-4-yl)piperazin-1-yl)prop-2-en-1-one], “++++ (++++ indicates binding activity greater than 75%)”.
Same read-out and setting: under `C=CC(=O)N1CCN(c2ncnc3c(OC)c(-c4c(C)ccc5[nH]ncc45)c(Cl)cc23)CC1` [Compound 302, 1-(4-(6-chloro-8-methoxy-7-(5-methyl-1H-indazol-4-yl)quinazolin-4-yl)piperazin-1-yl)prop-2-en-1-one] stands “+++ (+++ indicates binding activity greater than 50% and up to 75%)”; under `C=CC(=O)N1CCN(c2ncnc3c(F)c(-c4c(F)ccc5c(C)n[nH]c45)c(Cl)cc23)CC1` [Compound 359, 1-(4-(6-chloro-8-fluoro-7-(6-fluoro-3-methyl-1H-indazol-7-yl)quinazolin-4-yl)piperazin-1-yl)prop-2-en-1-one], “++++ (++++ indicates binding activity greater than 75%)”.
For the molecule `C=CC(=O)N1CCN(c2nc(NCCc3nccn3C)nc3c(F)c(-c4c(C)ccc5[nH]ncc45)c(Cl)cc23)CC1` [Compound 352, 1-(4-(6-chloro-8-fluoro-2-(2-(1-methyl-1H-imidazol-2-yl)ethylamino)-7-(5-methyl-1H-indazol-4-yl)quinazolin-4-yl)piperazin-1-yl)prop-2-en-1-one], the Binding % entry is on record as “++++ (++++ indicates binding activity greater than 75%)”.
The same measure, in the same setting: to `C=CC(=O)N1CCN(c2ncnc3c(F)c(-c4c(O)cccc4F)c(Cl)cc23)CC1` [Compound 353, (S)-1-(4-(6-chloro-8-fluoro-7-(2-fluoro-6-hydroxyphenyl)quinazolin-4-yl)piperazin-1-yl)prop-2-en-1-one] belongs “++++ (++++ indicates binding activity greater than 75%)”; to `C=CC(=O)N1CCN(c2nc(N(C)CCN(C)C)nc3c(F)c(-c4c(C)ccc5[nH]ncc45)c(Cl)cc23)CC1` [Compound 371, 1-(4-(6-chloro-2-((2-(dimethylamino)ethyl)(meth-yl)amino)-8-fluoro-7-(5-methyl-1H-indazol-4-yl)quinazolin-4-yl)piperazin-1-yl)prop-2-en-1-one], “++ (++ indicates binding activity greater than 25% and up to 50%)”.
Same read-out and setting: under `C=CC(=O)N1CCN(c2nc(N(C)CCN(C)C)nc3c(F)c(-c4cc(O)cc5ccccc45)c(Cl)cc23)CC1` [Compound 361, 1-(4-(6-chloro-2-((2-(dimethylamino)ethyl)(meth-yl)amino)-8-fluoro-7-(3-hydroxynaphthalen-1-yl)quinazolin-4-yl)piperazin-1-yl)prop-2-en-1-one] stands “++++ (++++ indicates binding activity greater than 75%)”.
The same measure, in the same setting: under `C=CC(=O)N1CCN(c2ncnc3c(F)c(-c4c(F)ccc5cn[nH]c45)c(Cl)cc23)CC1` [Compound 368, 1-(4-(6-chloro-8-fluoro-7-(6-fluoro-1H-indazol-7-yl)quinazolin-4-yl)piperazin-1-yl)prop-2-en-1-one] stands “++++ (++++ indicates binding activity greater than 75%)”.

Staying with this test, now noted: binding measured at 2 h (compounds 48-246).
For `C=CC(=O)N1CCN(c2nc(C)nc3cc(Cl)c(-c4ccc(Cl)cc4)cc23)CC1` [Compound 50, 1-(4-(7-chloro-6-(4-chlorophenyl)-2-methylquinazolin-4-yl)piperazin-1-yl)prop-2-en-1-one], the Binding % entry is “+ (+ indicates binding activity from 5% to 25%)”.
On to `C=CC(=O)N1CCN(c2ncnc3cc(-c4cc(O)c(F)cc4F)c(Cl)cc23)CC1` [Compound 206, 1-(4-(6-chloro-7-(2,4-difluoro-5-hydroxyphenyl)quinazolin-4-yl)piperazin-1-yl)prop-2-en-1-one], for which the Binding % result was “+++ (+++ indicates binding activity greater than 50% and up to 75%)”.
On the same count and under the same terms, to `C=CC(=O)N1CCC(n2c(=O)cnc3cc(-c4ccc(F)cc4F)c(Cl)cc32)CC1` [Compound 151, 1-(1-acryloylpiperidin-4-yl)-7-chloro-6-(2,4-difluorophenyl)quinoxalin-2(1H)-one] belongs “+ (+ indicates binding activity from 5% to 25%)”.

The same test, now with this note: binding measured at 24 h (compounds 1-47).
`C=CC(=O)N1CCN(c2ncnc3cc(Cl)c(-c4ccc(Br)cc4)cc23)CC1` [Compound 40, 1-(4-(6-(4-bromophenyl)-7-chloroquinazolin-4-yl)piperazin-1-yl)prop-2-en-1-one]: the Binding % result is “+++ (+++ indicates binding activity greater than 50% and up to 75%)”.
